Test results from ChEMBL document CHEMBL1201862, “PubChem BioAssay data set” (2004).
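Five compound concentrations were applied to cells in 96-well plates for 48 hours; endpoints were derived by simple linear interpolation of the resulting dose-response curve. At the GI50, growth is halved.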 The source made the active and inactive calls. Cut-off read from the data, not from the text of the source: active = GI50 up to about 1.1 µM and inactive = higher.

How the values were obtained:
Test in all cases: growth of human tumour cells (NCI), 48 h
UO-31 = system: UO-31
SNB-19 = system: SNB-19
K562 = system: K562
RPMI-8226 = system: RPMI-8226
786-0 = system: 786-0
UACC-257 = system: UACC-257
NCI-H226 = system: NCI-H226
KM12 = system: KM12
SK-MEL-28 = system: SK-MEL-28
MOLT-4 = system: MOLT-4
ACHN = system: ACHN
OVCAR-8 = system: OVCAR-8
SF-295 = system: SF-295
SR = system: SR
A498 = system: A498
DU-145 = system: DU-145

SMILES | GI50 (UO-31) | GI50 (SNB-19) | GI50 (K562) | GI50 (RPMI-8226) | GI50 (786-0) | GI50 (UACC-257) | GI50 (NCI-H226) | GI50 (KM12) | GI50 (SK-MEL-28) | GI50 (MOLT-4) | GI50 (ACHN) | GI50 (OVCAR-8) | GI50 (SF-295) | GI50 (SR) | GI50 (A498) | GI50 (DU-145)
CC1(C)C(=NN=C(N)N)C(C)(C)C1=NN=C(N)N | > 100 µM (inactive) | > 100 µM (inactive) | > 100 µM (inactive) | > 100 µM (inactive) | > 100 µM (inactive) | > 100 µM (inactive) | > 100 µM (inactive) | > 100 µM (inactive) | > 100 µM (inactive) | > 100 µM (inactive) | > 100 µM (inactive) | > 100 µM (inactive) | > 100 µM (inactive) | > 100 µM (inactive) |  | 
Cc1cc(=O)c2c(O)cc3c(c2o1)CC=C(COC1OC(COC2OC(CO)C(O)C(O)C2O)C(O)C(O)C1O)CO3 (configuration not stated) | > 100 µM (inactive) | > 100 µM (inactive) | > 100 µM (inactive) |  | > 100 µM (inactive) | > 100 µM (inactive) | > 100 µM (inactive) | > 100 µM (inactive) | > 100 µM (inactive) | > 100 µM (inactive) | > 100 µM (inactive) | > 100 µM (inactive) | > 100 µM (inactive) | > 100 µM (inactive) |  | 
BrC1=CC=C2NC=CC3=CC=NC1C32 (configuration not stated) | 14.5 µM (inactive) | 8.51 µM (inactive) | 12.2 µM (inactive) | 11.4 µM (inactive) | 8.34 µM (inactive) | 33.5 µM (inactive) | 14.2 µM (inactive) | 24.2 µM (inactive) | 37.7 µM (inactive) | 2.75 µM (inactive) | 7.26 µM (inactive) | 16.4 µM (inactive) | 8.36 µM (inactive) | 4.57 µM (inactive) | 30.3 µM (inactive) | 
COC(=O)C1=C(O)c2cc(OC)c(OC)cc2C(c2ccc(OC)c(OC)c2)C1 (configuration not stated) | > 100 µM (inactive) |  | > 100 µM (inactive) | > 100 µM (inactive) | > 100 µM (inactive) | > 100 µM (inactive) | > 100 µM (inactive) | 76.9 µM (inactive) | > 100 µM (inactive) | 88.5 µM (inactive) | 77.3 µM (inactive) | 93.1 µM (inactive) | 46.9 µM (inactive) | 38.5 µM (inactive) | 36.3 µM (inactive) | 
CC1(C)CC2CC(CC(C)(C)C2=O)C1=O | > 100 µM (inactive) | > 100 µM (inactive) | > 100 µM (inactive) | > 100 µM (inactive) | > 100 µM (inactive) | > 100 µM (inactive) |  | > 100 µM (inactive) | > 100 µM (inactive) | > 100 µM (inactive) | > 100 µM (inactive) | > 100 µM (inactive) | > 100 µM (inactive) | > 100 µM (inactive) | > 100 µM (inactive) | 
CC(=O)c1cccc(NCn2nnc3ccccc32)c1 | > 100 µM (inactive) | > 100 µM (inactive) | > 100 µM (inactive) | 96.8 µM (inactive) | > 100 µM (inactive) | > 100 µM (inactive) | > 100 µM (inactive) | > 100 µM (inactive) | > 100 µM (inactive) | > 100 µM (inactive) | > 100 µM (inactive) | > 100 µM (inactive) | > 100 µM (inactive) | 79.4 µM (inactive) | > 100 µM (inactive) | 
CC#C[P+](c1ccccc1)(c1ccccc1)c1ccccc1 | 7.41 µM (inactive) | 3.3 µM (inactive) | 1.95 µM (inactive) |  | 1.6 µM (inactive) | 2.76 µM (inactive) | 3.13 µM (inactive) | 2.88 µM (inactive) | 12.2 µM (inactive) | 0.953 µM (active) | 3.99 µM (inactive) | 0.962 µM (active) | 2.75 µM (inactive) | 2.88 µM (inactive) | 39.4 µM (inactive) | 
N#Cc1cn(-c2c3ccccc3nc3ccccc23)c(=O)[nH]c1=O | 3.8 µM (inactive) | 22.2 µM (inactive) | 3.67 µM (inactive) | 14 µM (inactive) | 3.29 µM (inactive) | 4.86 µM (inactive) |  | 7.16 µM (inactive) | 16.8 µM (inactive) | 4.15 µM (inactive) | 4.19 µM (inactive) | 4.85 µM (inactive) | 5.83 µM (inactive) | 3.31 µM (inactive) |  | 
COC(OC)c1cccc2c1C1(O)CCC3(CC21)OCCCCO3 (configuration not stated) | > 100 µM (inactive) | > 100 µM (inactive) | > 100 µM (inactive) | > 100 µM (inactive) | > 100 µM (inactive) | > 100 µM (inactive) | > 100 µM (inactive) | > 100 µM (inactive) | > 100 µM (inactive) | > 100 µM (inactive) | > 100 µM (inactive) | > 100 µM (inactive) | > 100 µM (inactive) | > 100 µM (inactive) | > 100 µM (inactive) | 
O=C(c1ccccc1)N1CCc2c([nH]c3ccccc23)C1 | 22.5 µM (inactive) | 59.7 µM (inactive) | 45.4 µM (inactive) | 23.5 µM (inactive) | 54.7 µM (inactive) | 28.7 µM (inactive) | 51.8 µM (inactive) | 48.8 µM (inactive) | 24.8 µM (inactive) | 24.5 µM (inactive) | 36.9 µM (inactive) | 29.5 µM (inactive) | 36.6 µM (inactive) | 33.1 µM (inactive) |  | 
C=C(CN(C)C)C(=O)c1ccc(C(=O)C(=C)CN(C)C)cc1 | > 100 µM (inactive) | > 100 µM (inactive) | > 100 µM (inactive) | > 100 µM (inactive) | > 100 µM (inactive) | > 100 µM (inactive) | > 100 µM (inactive) | > 100 µM (inactive) | > 100 µM (inactive) | > 100 µM (inactive) | > 100 µM (inactive) | > 100 µM (inactive) | > 100 µM (inactive) | > 100 µM (inactive) | > 100 µM (inactive) | > 100 µM (inactive)
CC1(C)OC(=S)N(c2ccccc2)C12C=Cc1cc3ccccc3nc1S2 (configuration not stated) | 73.5 µM (inactive) | > 100 µM (inactive) | 33.4 µM (inactive) | 33.7 µM (inactive) | > 100 µM (inactive) | > 100 µM (inactive) | > 100 µM (inactive) | > 100 µM (inactive) | > 100 µM (inactive) | 26.9 µM (inactive) | > 100 µM (inactive) | > 100 µM (inactive) |  | 22.4 µM (inactive) |  | 
CN1C2C=C(c3ccccc3)CC1CC2 (configuration not stated) | > 100 µM (inactive) | > 100 µM (inactive) | > 100 µM (inactive) | > 100 µM (inactive) | > 100 µM (inactive) | > 100 µM (inactive) |  | > 100 µM (inactive) | > 100 µM (inactive) | > 100 µM (inactive) | > 100 µM (inactive) | > 100 µM (inactive) | > 100 µM (inactive) | > 100 µM (inactive) | > 100 µM (inactive) | 
Cc1ccc(S(=O)(=O)c2c3nc4ccccc4nc3n3c2[nH]c2ccccc23)cc1 | > 100 µM (inactive) | > 100 µM (inactive) | > 100 µM (inactive) | > 100 µM (inactive) | > 100 µM (inactive) | > 100 µM (inactive) |  | 58.1 µM (inactive) | > 100 µM (inactive) | > 100 µM (inactive) | > 100 µM (inactive) | > 100 µM (inactive) |  | > 100 µM (inactive) | 18.7 µM (inactive) | 
O=C(O)CSc1nnc(Cc2ccccc2)[nH]1 | > 100 µM (inactive) | > 100 µM (inactive) | > 100 µM (inactive) | > 100 µM (inactive) | > 100 µM (inactive) | > 100 µM (inactive) | > 100 µM (inactive) | > 100 µM (inactive) | > 100 µM (inactive) | > 100 µM (inactive) | > 100 µM (inactive) | > 100 µM (inactive) | > 100 µM (inactive) | > 100 µM (inactive) |  | 
Nc1ccc(C(=O)NN2C(=O)C(Cl)C2c2ccccc2Cl)cc1 (configuration not stated) | 17 µM (inactive) | 16.9 µM (inactive) |  | 6.25 µM (inactive) | 1.69 µM (inactive) | 13.6 µM (inactive) | 16.8 µM (inactive) | 12.1 µM (inactive) | 14.8 µM (inactive) | 1.59 µM (inactive) | 16.4 µM (inactive) | 3.24 µM (inactive) | 2.95 µM (inactive) | 5.45 µM (inactive) |  | 
CNS(=O)(=O)NN(C)S(=O)(=O)c1ccc(OC)cc1 | > 100 µM (inactive) | > 100 µM (inactive) | > 100 µM (inactive) | > 100 µM (inactive) | > 100 µM (inactive) | > 100 µM (inactive) | > 100 µM (inactive) | > 100 µM (inactive) |  | > 100 µM (inactive) | > 100 µM (inactive) | > 100 µM (inactive) | > 100 µM (inactive) | > 100 µM (inactive) | > 100 µM (inactive) | 
C[C@@H](c1ccccc1)N(CC#N)C1CCC[C@H]1O (some centres not stated) | > 100 µM (inactive) | > 100 µM (inactive) | > 100 µM (inactive) | > 100 µM (inactive) | > 100 µM (inactive) | > 100 µM (inactive) | > 100 µM (inactive) | > 100 µM (inactive) | > 100 µM (inactive) | > 100 µM (inactive) | > 100 µM (inactive) | > 100 µM (inactive) | > 100 µM (inactive) |  | > 100 µM (inactive) | 
Cn1cnc([N+](=O)[O-])c1SC1=NCCS1 | 74.6 µM (inactive) | > 100 µM (inactive) | 28 µM (inactive) | 36.7 µM (inactive) | > 100 µM (inactive) | 72.8 µM (inactive) | > 100 µM (inactive) | > 100 µM (inactive) | 55 µM (inactive) | 25.6 µM (inactive) | 91 µM (inactive) | > 100 µM (inactive) | > 100 µM (inactive) | 24.5 µM (inactive) | > 100 µM (inactive) | 
